Data as given in ChEMBL document CHEMBL4251555, “Synthesis, antitumor evaluation and microarray study of some new pyrazolo[3,4-d][1,2,3]triazine derivatives” (Eur J Med Chem, 2017).

How the values were obtained:
[1] = system: TERT-RPE1; assay: Cytotoxicity against human RPE1 cells after 48 hrs by resazurin assay; assay type: cell-based; conditions: RPE-1, 48 h
[2] = Selectivity index, ratio of IC50 for human RPE1 cells to IC50 for human HuH7 cells; assay type: toxicity; conditions: RPE1 cells versus HuH7 cells, read-out: Ratio IC50
[3] = Selectivity index, ratio of IC50 for human RPE1 cells to IC50 for human CCRF-CEM cells; assay type: toxicity; conditions: RPE1 cells versus CCRF-CEM cells, read-out: Ratio IC50
[4] = Selectivity index, ratio of IC50 for human RPE1 cells to IC50 for human PANC1 cells; assay type: toxicity; conditions: RPE1 cells versus PANC1 cells, read-out: Ratio IC50
[5] = system: PANC-1; assay: Cytotoxicity against human PANC1 cells after 48 hrs by resazurin assay; assay type: functional, cell-based; conditions: PANC-1, 48 h
[6] = system: CCRF-CEM; assay: Cytotoxicity against human CCRF-CEM cells after 48 hrs by resazurin assay; assay type: functional, cell-based
[7] = system: Huh-7; assay: Cytotoxicity against human HuH7 cells after 48 hrs by resazurin assay; assay type: functional, cell-based; conditions: Huh-7, 48 h
[8] = system: Huh-7; assay: Downregulation of SOCS2 gene expression in human HuH7 cells after 48 hrs by micro-array analysis relative to control; assay type: functional
[9] = system: Huh-7; assay: Induction of apoptosis in human HuH7 cells assessed as caspase-3/7 activation after 24 hrs by Caspase-Glo assay; assay type: functional, cell-based
[10] = system: Huh-7; assay: Upregulation of UGT1A1 gene expression in human HuH7 cells after 48 hrs by micro-array analysis relative to control; assay type: functional
[11] = system: Huh-7; assay: Upregulation of UGT2B17 gene expression in human HuH7 cells after 48 hrs by micro-array analysis relative to control; assay type: functional
[12] = system: Huh-7; assay: Upregulation of SLC26A3 gene expression in human HuH7 cells after 48 hrs by micro-array analysis relative to control; assay type: functional
[13] = system: Huh-7; assay: Downregulation of FSCN1 gene expression in human HuH7 cells after 48 hrs by micro-array analysis relative to control; assay type: functional
[14] = system: Huh-7; assay: Downregulation of IFI27 gene expression in human HuH7 cells after 48 hrs by micro-array analysis relative to control; assay type: functional
[15] = system: Huh-7; assay: Downregulation of TAGLN gene expression in human HuH7 cells after 48 hrs by micro-array analysis relative to control; assay type: functional
[16] = system: Huh-7; assay: Downregulation of GIP3 gene expression in human HuH7 cells after 48 hrs by micro-array analysis relative to control; assay type: functional
[17] = system: Huh-7; assay: Downregulation of THBS1 gene expression in human HuH7 cells after 48 hrs by micro-array analysis relative to control; assay type: functional
[18] = system: Huh-7; assay: Upregulation of UGT2B15 gene expression in human HuH7 cells after 48 hrs by micro-array analysis relative to control; assay type: functional
[19] = system: Huh-7; assay: Upregulation of MUCDH1 gene expression in human HuH7 cells after 48 hrs by micro-array analysis relative to control; assay type: functional
[20] = system: PANC-1; assay: Induction of apoptosis in human PANC1 cells assessed as caspase-3/7 activation after 24 hrs by Caspase-Glo assay; assay type: functional, cell-based
[21] = system: Huh-7; assay: Upregulation of UGT2B7 gene expression in human HuH7 cells after 48 hrs by micro-array analysis relative to control; assay type: functional
[22] = system: Huh-7; assay: Upregulation of DNASE1 gene expression in human HuH7 cells after 48 hrs by micro-array analysis relative to control; assay type: functional

## CCOc1ccc(NC(=O)CC#N)cc1
[1]
  IC50: > 100 µM
[2]
  selectivity ratio: > 4.6
[3]
  selectivity ratio: > 7.1
[4]
  selectivity ratio: > 2.3
[5]
  IC50: 43.9 µM
[6]
  IC50: 14.1 µM
[7]
  IC50: 21.5 µM

## C=CCNc1[nH]nc2nnn(-c3ccc(OCC)cc3)c(=O)c12
[1]
  IC50: > 100 µM
[8]
  fold change (FC): >4
[9]
  Activity: Dose-dependent effect
[10]
  fold change (FC): >=3 - 6
[11]
  fold change (FC): >=3 - 6
[12]
  fold change (FC): >=3 - 6
[2]
  selectivity ratio: > 20.3
[3]
  selectivity ratio: > 21.2
[13]
  fold change (FC): >4
[4]
  selectivity ratio: > 7.5
[14]
  fold change (FC): >4
[15]
  fold change (FC): >4
[5]
  IC50: 13.3 µM
[6]
  IC50: 4.73 µM
[7]
  IC50: 4.94 µM
[16]
  fold change (FC): >4
[17]
  fold change (FC): >4
[18]
  fold change (FC): >=3 - 6
[19]
  fold change (FC): >=3 - 6
[20]
  Activity: Dose-dependent effect
[21]
  fold change (FC): >=3 - 6
[22]
  fold change (FC): >=3 - 6

## CCOc1ccc(-n2nnc3n[nH]c(Nc4ccccc4)c3c2=O)cc1
[1]
  IC50: > 100 µM
[2]
  selectivity ratio: > 10.6
[3]
  selectivity ratio: > 16.9
[4]
  selectivity ratio: > 7.6
[5]
  IC50: 13.1 µM
[6]
  IC50: 5.92 µM
[7]
  IC50: 9.39 µM

## CCOc1ccc(-n2nnc3n[nH]c(NC45CC6CC(CC(C6)C4)C5)c3c2=O)cc1
[1]
  IC50: > 100 µM
[2]
  selectivity ratio: > 4.3
[3]
  selectivity ratio: > 6.4
[4]
  selectivity ratio: > 22.7
[5]
  IC50: 4.41 µM
[6]
  IC50: 15.6 µM
[7]
  IC50: 23.2 µM

## CCN/C(SC)=C(/C#N)C(=O)Nc1ccc(OCC)cc1
[1]
  IC50: > 100 µM
[2]
  selectivity ratio: > 6.1
[3]
  selectivity ratio: > 10.1
[4]
  selectivity ratio: > 2.4
[5]
  IC50: 41.6 µM
[6]
  IC50: 9.89 µM
[7]
  IC50: 16.4 µM

## C=CCN/C(SC)=C(/C#N)C(=O)Nc1ccc(OCC)cc1
[1]
  IC50: > 100 µM
[9]
  Activity: Dose-dependent effect
[2]
  selectivity ratio: > 11.3
[3]
  selectivity ratio: > 5.4
[4]
  selectivity ratio: > 4.6
[5]
  IC50: 21.8 µM
[6]
  IC50: 18.5 µM
[7]
  IC50: 8.85 µM
[20]
  Activity: Dose-dependent effect

## C=CCNc1[nH]nc(N)c1C(=O)Nc1ccc(OCC)cc1
[1]
  IC50: > 100 µM
[2]
  selectivity ratio: > 4.5
[3]
  selectivity ratio: > 15.2
[4]
  selectivity ratio: > 3.2
[5]
  IC50: 30.8 µM
[6]
  IC50: 6.56 µM
[7]
  IC50: 22 µM

## CCOc1ccc(NC(=O)c2c(N)n[nH]c2Nc2ccccc2)cc1
[1]
  IC50: 67.8 µM
[2]
  selectivity ratio: 15.7
[3]
  selectivity ratio: 15.1
[4]
  selectivity ratio: 3.2
[5]
  IC50: 21 µM
[6]
  IC50: 4.47 µM
[7]
  IC50: 4.32 µM

## CCOc1ccc(-n2nnc3n[nH]c(NC)c3c2=O)cc1
[1]
  IC50: > 100 µM
[9]
  Activity: Dose-dependent effect
[2]
  selectivity ratio: > 14.3
[3]
  selectivity ratio: > 8.1
[4]
  selectivity ratio: > 10.1
[5]
  IC50: 9.92 µM
[6]
  IC50: 12.4 µM
[7]
  IC50: 7.01 µM
[20]
  Activity: Dose-dependent effect

## CCOc1ccc(NC(=O)c2c(N)n[nH]c2NC23CC4CC(CC(C4)C2)C3)cc1
[1]
  IC50: 81.2 µM
[2]
  selectivity ratio: 7.6
[3]
  selectivity ratio: 5.3
[4]
  selectivity ratio: 6.2
[5]
  IC50: 13.2 µM
[6]
  IC50: 15.2 µM
[7]
  IC50: 10.6 µM

## CCOc1ccc(NC(=O)/C(C#N)=C(\Nc2ccccc2)SC)cc1
[1]
  IC50: > 100 µM
[2]
  selectivity ratio: > 4
[3]
  selectivity ratio: > 4.9
[4]
  selectivity ratio: > 2
[5]
  IC50: 49.3 µM
[6]
  IC50: 20.3 µM
[7]
  IC50: 25.3 µM

## COc1cccc2c1C(=O)c1c(O)c3c(c(O)c1C2=O)C[C@@](O)(C(=O)CO)C[C@@H]3O[C@H]1C[C@H](N)[C@H](O)[C@H](C)O1 [DOXORUBICIN]
[1]
  IC50: 14 µM
[7]
  IC50: 5.43 µM

## CCOc1ccc(NC(=O)/C(C#N)=C(\NC)SC)cc1
[1]
  IC50: > 100 µM
[9]
  Activity: Dose-dependent effect
[2]
  selectivity ratio: > 17.3
[3]
  selectivity ratio: > 10.1
[4]
  selectivity ratio: > 3.8
[5]
  IC50: 26.4 µM
[6]
  IC50: 9.94 µM
[7]
  IC50: 5.78 µM
[20]
  Activity: Dose-dependent effect

## CCOc1ccc(NC(=O)c2c(N)n[nH]c2NC)cc1
[1]
  IC50: > 100 µM
[2]
  selectivity ratio: > 4.6
[3]
  selectivity ratio: > 12.7
[4]
  selectivity ratio: > 3.2
[5]
  IC50: 31 µM
[6]
  IC50: 7.9 µM
[7]
  IC50: 21.8 µM

## CCNc1[nH]nc(N)c1C(=O)Nc1ccc(OCC)cc1
[1]
  IC50: > 100 µM
[2]
  selectivity ratio: > 3.7
[3]
  selectivity ratio: > 7.2
[4]
  selectivity ratio: > 6.8
[5]
  IC50: 14.8 µM
[6]
  IC50: 14 µM
[7]
  IC50: 27 µM

## CCOc1ccc(NC(=O)/C(C#N)=C(\NC23CC4CC(CC(C4)C2)C3)SC)cc1
[1]
  IC50: > 100 µM
[2]
  selectivity ratio: > 10
[3]
  selectivity ratio: > 5.7
[4]
  selectivity ratio: > 4.2
[5]
  IC50: 23.7 µM
[6]
  IC50: 17.6 µM
[7]
  IC50: 10 µM

## CCNc1[nH]nc2nnn(-c3ccc(OCC)cc3)c(=O)c12
[1]
  IC50: > 100 µM
[2]
  selectivity ratio: > 6.9
[3]
  selectivity ratio: > 6.6
[4]
  selectivity ratio: > 6.2
[5]
  IC50: 16.1 µM
[6]
  IC50: 15.2 µM
[7]
  IC50: 14.4 µM
